Assay results: ChEMBL document CHEMBL1149452 (J Med Chem, 2006)

Key:
[1] = biological target: T1, 17-beta-hydroxysteroid dehydrogenase type 1 (Homo sapiens, UniProt P14061); assay: (§1) Inhibition of 17-beta HSD1 in T47D cells; format: functional, cell-based
T1 sequence (P14061 whole entry): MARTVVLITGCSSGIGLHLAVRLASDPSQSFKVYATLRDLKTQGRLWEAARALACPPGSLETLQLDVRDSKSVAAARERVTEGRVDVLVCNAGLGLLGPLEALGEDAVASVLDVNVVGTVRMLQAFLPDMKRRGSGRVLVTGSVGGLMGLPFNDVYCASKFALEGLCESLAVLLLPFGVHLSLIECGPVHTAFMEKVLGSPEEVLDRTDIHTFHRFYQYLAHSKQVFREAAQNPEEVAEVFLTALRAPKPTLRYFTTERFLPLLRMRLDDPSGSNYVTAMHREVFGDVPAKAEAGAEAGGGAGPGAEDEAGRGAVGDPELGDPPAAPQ

[2] = biological target: T2, 17-beta-hydroxysteroid dehydrogenase type 1 (Homo sapiens) (UniProt P14061); assay: as §1; format: functional, cell-based
T2 sequence (whole entry): T1 sequence (P14061 whole entry)

SMILES | IC50 [1] | IC50 [2]
C[C@]12CC[C@@H]3c4ccc(O)cc4CC[C@H]3[C@@H]1C/C(=C\c1ccncc1)[C@@H]2O | 4100 nM | –
C[C@]12CC[C@@H]3c4ccc(O)cc4/C(=N\O)C[C@H]3[C@@H]1CC/C2=N\O | 1900 nM | –
C[C@]12CC[C@@H]3c4ccc(O)cc4CC[C@H]3[C@@H]1CC(C(=O)NCc1cccnc1)[C@@H]2O (stereo not given in full) | 510 nM | –
CCOC(=O)CC1C[C@H]2[C@@H]3CCc4cc(O)ccc4[C@H]3CC[C@]2(C)C1=O (stereo not given in full) | 300 nM | –
CC(NC(=O)C1C[C@H]2[C@@H]3CCc4cc(O)ccc4[C@H]3CC[C@]2(C)[C@H]1O)c1ccccc1 (stereo not given in full) | 810 nM | –
C[C@]12CCC3c4ccc(O)cc4C(=O)CC3C1CC(C=O)=C2O (stereo not given in full) | – | 700 nM
CNC(=O)CC1C[C@H]2[C@@H]3CCc4cc(O)ccc4[C@H]3CC[C@]2(C)C1=O (stereo not given in full) | 1500 nM | –
C[C@]12CC[C@@H]3c4ccc(O)cc4CC[C@H]3[C@@H]1CC(CC(=O)NCC1CCCO1)C2=O (stereo not given in full) | 380 nM | –
CCOC[C@H]1C[C@H]2[C@@H]3CCc4cc(O)ccc4[C@H]3CC[C@]2(C)C1=O | 320 nM | –
C[C@]12CC[C@@H]3c4ccc(O)cc4C(=O)C[C@H]3[C@@H]1CCC2=O | 340 nM | –
